Measurements: patent US20250084036A1, “COMPOUND, ALDEHYDE DEHYDROGENASE 2 ACTIVATOR, PHARMACEUTICAL COMPOSITION, AND THERAPEUTIC AND/OR PROPHYLACTIC DRUG” (Alchemedicine, Inc., priority 2022, published 2025)

Key:
[1] = Test Example 2: Metabolic stability with mouse hepatic microsomes; type: in vitro ADME; details: after 30 minutes, 37° C., NADPH; further: tested at 0.99 µM
Protocol: Metabolic stability in mouse hepatic microsomes was evaluated with the following method.
• (1) Mouse hepatic microsomes: 20 mg/mL • (2) Test compound: 1.1 mM DMSO solution • (3) Potassium phosphate buffer solution: 66.7 mM (pH 7.4) • (4) NADPH solution: 10 mM in potassium phosphate buffer solution • (5) Quenching solution: 0.5% formic acid-acetonitrile solution with warfarin as internal standard substance
Into a propylene tube, 971.5 μL of the potassium phosphate buffer solution and 27.5 μL of the mouse hepatic microsomes were put, and suspended. Thereto, 1 μL of a test compound was added, and 180 μL was taken from this mixture and transferred into another tube. The mixture was preincubated at 37° C. for 5 minutes, and 20 μL of the NADPH solution (for the case with an incubation time of 30 minutes) or 20 μL of the potassium phosphate buffer solution (for the case with an incubation time of 0 minutes) was then added thereto. After incubation, 200 μL of the quenching solution was added to terminate the reaction. Subsequently, centrifugation was performed at 3220×g for 20 minutes, and the concentration of the unchanged form of the test compound in 200 μL of the supernatant was measured with LC-MS/MS. On the basis of the peak area obtained for the unchanged form, the residual rate (%) of the unchanged form was calculated as that for the case with an incubation time of 0 minutes was assumed as 100%.

[2] = biological target: T1, human recombinant ALDH2 enzyme (Homo sapiens, UniProt P05091); assay: Test Example 1-1: ALDH2 activation effect (acetaldehyde oxidation rate, PicoProbe kit); type: biochemical; details: ALDH2 2 μg/mL, 180 min measurement
T1 construct: purchased Abcam ab87415
T1 sequence (P05091 18-517): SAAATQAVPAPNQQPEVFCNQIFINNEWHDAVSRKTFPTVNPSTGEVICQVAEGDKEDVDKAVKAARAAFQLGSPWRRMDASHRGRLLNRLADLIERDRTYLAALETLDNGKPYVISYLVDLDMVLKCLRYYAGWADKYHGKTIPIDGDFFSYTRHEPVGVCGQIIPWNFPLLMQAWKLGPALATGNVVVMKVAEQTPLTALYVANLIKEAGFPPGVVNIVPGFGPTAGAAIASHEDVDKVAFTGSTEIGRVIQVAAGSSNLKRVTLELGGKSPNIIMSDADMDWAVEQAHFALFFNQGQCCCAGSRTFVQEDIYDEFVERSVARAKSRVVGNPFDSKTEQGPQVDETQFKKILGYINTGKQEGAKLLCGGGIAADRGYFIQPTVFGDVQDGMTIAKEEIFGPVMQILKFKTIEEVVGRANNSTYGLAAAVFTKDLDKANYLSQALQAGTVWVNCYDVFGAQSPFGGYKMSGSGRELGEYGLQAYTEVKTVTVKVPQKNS
Protocol: The activation effect of each test compound on the acetaldehyde oxidation rate of ALDH2 was measured with the following method. A test was conducted by using a commercially available PicoProbe™ Aldehyde dehydrogenase Activity Assay Kit (manufactured by BioVision Inc.) with reference to an instruction attached to the product under the following conditions. To each well of a 384-well plate, the following (1) to (3) were sequentially added with a pipette: • (1) 10 μL of solution obtained by dissolving and diluting a human recombinant ALDH2 enzyme (manufactured by Abcam, product number: ab87415) with ALDH assay Buffer (final concentration: 2 μg/mL); • (2) 10 μL of 30 μM or 90 μM test compound solution (with 3% DMSO) prepared by using ALDH assay Buffer; and • (3) 10 μL of Reaction mix composed with ratio of […] of ALDH assay Buffer, 0.6 μL of PicoProbe, 0.3 μL of Substrate Mix, and 1.5 μL of Acetaldehyde.
Before addition of (3), incubation was performed at room temperature for 5 minutes. After addition of (3), fluorescence intensity was measured at room temperature every 2.5 minutes over a period of 180 minutes by using an EnSight (manufactured by PerkinElmer Inc.) to determine the oxidation rate. Wavelengths of 535 nm and 587 nm were used for fluorescence intensities of excitation and emission, respectively.

[3] = tested on: pain induced by carrageenan, C57BL/6J mice; assay: Test Example 5: Suppression effect on pain induced by carrageenan (von Frey escape score); type: in vivo, mouse; details: mean ± SE, n=8
Protocol: This experiment was carried out with reference to Science Translational Medicine 6, 251ra118 (2014). Animals used were 7-week-old male C57BL/6J mice (The Jackson Laboratory Japan, Inc.). To induce mechanical allodynia to a sole part, carrageenan was subcutaneously administered to the sole of the left hind limb of each mouse. The escape response against mechanical stimulation 180 minutes after the induction was measured by using a von Frey filament with bending force (0.16 grams) to the sole surface of the left hind limb in the ascending direction. The mouse was stimulated in the vertical direction for 6 seconds until the filament bent, and the escape response of the mouse was rated with three-grade scoring (0: no response or startle response (displacing the foot without ascending), 1: ascending the foot, 2: licking or shaking the foot). Stimulation was performed 10 times, and the total value of 10 scores (escape score) was calculated.
The compound (Example 3) was dissolved in DMSO/PEG400 (volume ratio: 1:1), and 2, 6, or 20 mg/kg (no compound for a Vehicle group) of the compound was subcutaneously administered to the back of the neck three times in total at the same dose: 15 minutes before injection of carrageenan, 30 minutes after injection of carrageenan, and 150 minutes after injection of carrageenan, each at a dose of 5 mL/kg in liquid volume. A 1.5% carrageenan solution was prepared with physiological saline, and subcutaneously administered to the sole of the left hind limb at 7 μL/body.
In significance test, multiple comparison by the Steel's test was carried out for comparison between the Vehicle group and Example 3 group, where the significance level was set to 5%, and calculation was separately performed for lower than 5% (p<0.05) and for lower than 1% (p<0.01). The commercially available statistical program SAS SYSTEM (SAS Institute Japan Ltd.) was used for the significance test.

[4] = Test Example 3: Metabolic stability with human hepatic microsomes; type: in vitro ADME; details: human hepatic microsomes 0.1 mg protein/mL, 0.1 μmol/L test compound, after 30 minutes, 37° C.
Protocol: For the compounds of Examples 1 to 9, which had been confirmed to have stability in the mouse hepatic microsome test, metabolic stability with human hepatic microsomes was measured. The specific method is as follows. • (1) Fifty microliter-portions were taken from 0.2 μmol/L test compound diluted with β-NADPH solution. • (2) Fifty microliters of 0.2 mg protein/mL human hepatic microsome solution was added to each (except for a sample with a reaction time of 0 minutes). • (3) Incubation was performed with shaking at 37° C. for 30 minutes (concentration in reaction sample: 0.1 μmol/L test compound, 0.1 mg protein/mL human hepatic microsome) • (4) After incubation, 400 μL of methanol was added to terminate the reaction. • (5) To the sample with a reaction time of 0 minutes, 50 μL of 0.2 mg protein/mL hepatic microsome solution was added. • (6) Each of the samples from (4) and (5) was left to stand at −20° C. for 30 minutes or longer, and then centrifuged at 4° C. and 3,000 rpm for approximately 10 minutes. • (7) The supernatant was subjected to measurement with LC/MS/MS, and, on the basis of the peak area obtained for the unchanged form, the residual rate (%) of the unchanged form was calculated as that for the case with an incubation time of 0 minutes was assumed as 100%.

- Residual rate (%) of unchanged form [1]: 93%
- acetaldehyde oxidation rate (no test compound = 100%) ([2]; test compound 10 μM): 188%
- acetaldehyde oxidation rate (no test compound = 100%) ([2]; test compound 30 μM): 226%
- Residual rate (%) of unchanged form [4]: 93%
Compound: COc1ncc(CNC(=O)c2cc(-c3ncccc3CO)ccc2F)cc1F [Example 3, 2-Fluoro-N-((5-fluoro-6-methoxypyridin-3-yl)methyl)-5-(3-(hydroxymethyl)pyridin-2-yl)benzamide]
- Pain-related total score ([3]; 2 mg/kg s.c. three times, 180 min after induction with carrageenan, p<0.01 vs Vehicle (9.4 ± 0.5)): 5.3 ± 0.3
- Pain-related total score ([3]; 2 mg/kg s.c. three times, Pre (before induction)): 1.8 ± 0.5
- Pain-related total score ([3]; 6 mg/kg s.c. three times, 180 min after induction with carrageenan, p<0.01 vs Vehicle (9.4 ± 0.5)): 4.6 ± 0.3
- Pain-related total score ([3]; 6 mg/kg s.c. three times, Pre (before induction)): 1.8 ± 0.5
- Pain-related total score ([3]; 20 mg/kg s.c. three times, 180 min after induction with carrageenan, p<0.01 vs Vehicle (9.4 ± 0.5)): 3.9 ± 0.3
- Pain-related total score ([3]; 20 mg/kg s.c. three times, Pre (before induction)): 1.8 ± 0.4
